This note sets out measurements from ChEMBL document CHEMBL5465560, “Selectivity Literature for EUbOPEN Chemogenomic Library” (2024).

Assay [1] deals with Mitogen-activated protein kinase kinase kinase kinase 1 (Homo sapiens) (UniProt Q92918). Kind of assay: Selectivity interaction (KinomeScan (DiscoverX)) EUB0000607a MAP4K1. The note with it: at 10 µM.
Assay [2] has as its target Rho-associated protein kinase 2 (Homo sapiens, UniProt O75116). The settings on record: at 10 µM.
The target in assay [3] is Mitogen-activated protein kinase 14 (Homo sapiens, UniProt Q16539). Kind of assay: Selectivity interaction (KinomeScan (DiscoverX)) EUB0000229b MAPK14. The settings on record: at 10 µM.
Sequence of Mitogen-activated protein kinase 14 (Q16539 whole entry): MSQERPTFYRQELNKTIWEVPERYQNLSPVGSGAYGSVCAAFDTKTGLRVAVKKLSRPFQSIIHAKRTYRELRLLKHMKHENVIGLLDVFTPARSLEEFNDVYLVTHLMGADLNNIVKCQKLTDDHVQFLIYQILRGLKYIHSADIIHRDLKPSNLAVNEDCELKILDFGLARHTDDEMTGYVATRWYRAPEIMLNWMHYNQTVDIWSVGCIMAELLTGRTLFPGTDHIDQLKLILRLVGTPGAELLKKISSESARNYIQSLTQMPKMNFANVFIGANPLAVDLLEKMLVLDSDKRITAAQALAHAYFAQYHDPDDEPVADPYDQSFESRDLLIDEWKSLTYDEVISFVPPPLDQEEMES
Assay [4] addresses T1, Serine/threonine-protein kinase tousled-like 1 (Homo sapiens) (UniProt Q9UKI8).
T1 sequence (whole entry): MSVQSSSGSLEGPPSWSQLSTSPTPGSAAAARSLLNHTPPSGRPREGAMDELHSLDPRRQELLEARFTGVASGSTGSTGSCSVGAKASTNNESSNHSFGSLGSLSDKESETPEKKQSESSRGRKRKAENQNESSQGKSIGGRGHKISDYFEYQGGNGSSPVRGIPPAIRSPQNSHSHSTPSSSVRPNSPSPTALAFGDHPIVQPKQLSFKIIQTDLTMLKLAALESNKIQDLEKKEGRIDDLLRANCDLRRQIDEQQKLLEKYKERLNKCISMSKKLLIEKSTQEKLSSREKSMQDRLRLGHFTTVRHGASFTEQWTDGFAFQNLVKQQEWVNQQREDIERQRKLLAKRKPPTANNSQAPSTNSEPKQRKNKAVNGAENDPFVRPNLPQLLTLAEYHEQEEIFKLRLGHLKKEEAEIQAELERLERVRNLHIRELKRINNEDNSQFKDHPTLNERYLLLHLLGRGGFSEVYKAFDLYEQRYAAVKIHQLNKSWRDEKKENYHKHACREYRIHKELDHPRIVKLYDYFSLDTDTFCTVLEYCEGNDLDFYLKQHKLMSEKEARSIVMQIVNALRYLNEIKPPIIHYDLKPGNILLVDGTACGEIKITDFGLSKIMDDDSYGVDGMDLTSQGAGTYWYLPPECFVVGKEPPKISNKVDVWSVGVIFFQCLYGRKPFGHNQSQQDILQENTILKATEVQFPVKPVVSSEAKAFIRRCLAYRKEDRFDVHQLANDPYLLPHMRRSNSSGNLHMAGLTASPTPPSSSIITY
Briefly: Selectivity interaction (KinomeScan (DiscoverX)) EUB0000655a TLK1. The note with it: at 10 µM.

For assay [5], the target named is T2, Tyrosine-protein kinase JAK1 (Homo sapiens, UniProt P23458). Kind of assay: Selectivity interaction (KinomeScan (DiscoverX)) EUB0001079a JAK1. The note with it: at 1 µM.
T2 sequence (P23458 whole entry): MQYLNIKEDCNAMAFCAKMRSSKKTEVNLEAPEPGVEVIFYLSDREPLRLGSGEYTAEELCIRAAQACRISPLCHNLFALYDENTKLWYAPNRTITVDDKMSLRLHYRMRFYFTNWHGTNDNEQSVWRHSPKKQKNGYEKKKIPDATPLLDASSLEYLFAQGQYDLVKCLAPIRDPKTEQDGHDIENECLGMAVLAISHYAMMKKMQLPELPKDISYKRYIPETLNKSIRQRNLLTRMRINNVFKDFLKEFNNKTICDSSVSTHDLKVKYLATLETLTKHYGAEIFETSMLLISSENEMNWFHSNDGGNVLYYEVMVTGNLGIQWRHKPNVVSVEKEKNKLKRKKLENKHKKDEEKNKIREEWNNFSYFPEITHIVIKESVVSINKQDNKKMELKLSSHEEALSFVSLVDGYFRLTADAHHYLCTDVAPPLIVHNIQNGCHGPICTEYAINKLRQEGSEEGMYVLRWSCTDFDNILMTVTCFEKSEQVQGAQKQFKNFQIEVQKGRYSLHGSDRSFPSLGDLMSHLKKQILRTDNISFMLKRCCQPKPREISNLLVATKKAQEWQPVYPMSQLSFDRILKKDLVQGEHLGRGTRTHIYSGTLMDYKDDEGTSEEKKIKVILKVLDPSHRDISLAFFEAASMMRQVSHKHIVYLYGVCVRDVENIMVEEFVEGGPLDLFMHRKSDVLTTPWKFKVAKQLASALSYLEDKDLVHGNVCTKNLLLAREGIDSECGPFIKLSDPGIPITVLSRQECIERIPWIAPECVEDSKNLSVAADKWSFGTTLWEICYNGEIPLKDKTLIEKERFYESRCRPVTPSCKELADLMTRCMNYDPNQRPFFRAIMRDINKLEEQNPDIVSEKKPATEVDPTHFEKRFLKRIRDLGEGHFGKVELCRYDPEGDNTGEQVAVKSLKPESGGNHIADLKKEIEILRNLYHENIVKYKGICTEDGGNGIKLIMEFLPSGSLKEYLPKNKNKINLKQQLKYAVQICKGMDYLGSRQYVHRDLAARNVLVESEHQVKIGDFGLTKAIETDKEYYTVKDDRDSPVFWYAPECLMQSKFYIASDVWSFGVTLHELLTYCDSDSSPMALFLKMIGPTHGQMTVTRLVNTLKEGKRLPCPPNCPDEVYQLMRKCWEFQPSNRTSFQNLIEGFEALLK
Assay [6] concerns the target T2, Tyrosine-protein kinase JAK1. Kind of assay: Selectivity interaction (ActivX KiNativ screen (kinase selectivity in THP-1 cell lysates)) EUB0000639a JAK1. The assay is classed as subcellular. The settings on record: lysate.
The target of assay [7] is T3, Ephrin type-A receptor 3 (Homo sapiens) (UniProt P29320).
T3 sequence (whole entry): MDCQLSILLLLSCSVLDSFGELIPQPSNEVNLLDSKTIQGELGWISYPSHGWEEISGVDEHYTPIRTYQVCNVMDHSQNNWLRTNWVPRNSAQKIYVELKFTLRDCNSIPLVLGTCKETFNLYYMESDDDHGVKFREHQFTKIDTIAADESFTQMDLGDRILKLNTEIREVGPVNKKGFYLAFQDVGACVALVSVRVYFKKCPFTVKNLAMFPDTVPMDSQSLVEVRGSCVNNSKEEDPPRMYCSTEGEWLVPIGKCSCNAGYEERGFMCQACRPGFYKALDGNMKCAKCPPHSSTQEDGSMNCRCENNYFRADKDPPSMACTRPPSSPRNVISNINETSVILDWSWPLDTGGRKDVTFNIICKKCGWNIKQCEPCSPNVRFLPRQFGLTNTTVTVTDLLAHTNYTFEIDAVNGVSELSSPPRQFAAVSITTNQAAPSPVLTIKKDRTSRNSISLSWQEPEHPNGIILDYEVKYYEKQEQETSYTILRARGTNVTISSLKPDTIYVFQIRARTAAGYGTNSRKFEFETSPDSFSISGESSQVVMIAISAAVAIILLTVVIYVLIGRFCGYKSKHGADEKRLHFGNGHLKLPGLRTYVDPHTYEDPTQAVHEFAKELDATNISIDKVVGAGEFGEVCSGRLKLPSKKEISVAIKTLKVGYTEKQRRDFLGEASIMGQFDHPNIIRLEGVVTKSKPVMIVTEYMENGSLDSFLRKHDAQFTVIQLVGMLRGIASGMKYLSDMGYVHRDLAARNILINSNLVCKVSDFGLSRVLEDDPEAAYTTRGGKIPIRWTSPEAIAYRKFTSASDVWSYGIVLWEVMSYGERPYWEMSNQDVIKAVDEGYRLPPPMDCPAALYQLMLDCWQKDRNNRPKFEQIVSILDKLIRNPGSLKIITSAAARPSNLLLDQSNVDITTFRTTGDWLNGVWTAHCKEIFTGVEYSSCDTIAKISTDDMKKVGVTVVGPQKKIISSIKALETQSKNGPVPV
Briefly: Selectivity interaction (KinomeScan (DiscoverX)) EUB0000045b EPHA3.

Sequence of Mitogen-activated protein kinase kinase kinase kinase 1 (Homo sapiens) (Q92918 whole entry, looked up): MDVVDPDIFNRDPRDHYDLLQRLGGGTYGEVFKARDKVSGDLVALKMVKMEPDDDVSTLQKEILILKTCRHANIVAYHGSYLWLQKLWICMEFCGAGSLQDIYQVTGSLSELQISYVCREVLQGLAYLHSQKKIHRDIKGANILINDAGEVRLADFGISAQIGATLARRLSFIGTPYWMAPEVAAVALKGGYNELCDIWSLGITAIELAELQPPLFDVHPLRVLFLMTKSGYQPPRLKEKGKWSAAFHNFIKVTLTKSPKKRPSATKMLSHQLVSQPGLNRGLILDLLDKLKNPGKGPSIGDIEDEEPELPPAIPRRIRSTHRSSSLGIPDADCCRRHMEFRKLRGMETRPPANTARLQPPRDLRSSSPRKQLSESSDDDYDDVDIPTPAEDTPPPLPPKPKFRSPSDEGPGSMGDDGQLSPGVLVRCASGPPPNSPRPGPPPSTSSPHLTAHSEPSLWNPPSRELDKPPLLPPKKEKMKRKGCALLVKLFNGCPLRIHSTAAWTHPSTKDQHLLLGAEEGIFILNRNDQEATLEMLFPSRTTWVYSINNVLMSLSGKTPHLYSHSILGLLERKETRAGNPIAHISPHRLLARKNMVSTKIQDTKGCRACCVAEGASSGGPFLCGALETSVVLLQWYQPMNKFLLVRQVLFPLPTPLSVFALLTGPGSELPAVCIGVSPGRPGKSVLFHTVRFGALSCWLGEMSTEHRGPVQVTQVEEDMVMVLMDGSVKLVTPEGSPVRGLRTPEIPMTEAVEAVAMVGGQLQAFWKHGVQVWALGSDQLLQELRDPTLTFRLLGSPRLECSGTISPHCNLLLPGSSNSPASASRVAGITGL
Sequence of Rho-associated protein kinase 2 (O75116 whole entry, looked up): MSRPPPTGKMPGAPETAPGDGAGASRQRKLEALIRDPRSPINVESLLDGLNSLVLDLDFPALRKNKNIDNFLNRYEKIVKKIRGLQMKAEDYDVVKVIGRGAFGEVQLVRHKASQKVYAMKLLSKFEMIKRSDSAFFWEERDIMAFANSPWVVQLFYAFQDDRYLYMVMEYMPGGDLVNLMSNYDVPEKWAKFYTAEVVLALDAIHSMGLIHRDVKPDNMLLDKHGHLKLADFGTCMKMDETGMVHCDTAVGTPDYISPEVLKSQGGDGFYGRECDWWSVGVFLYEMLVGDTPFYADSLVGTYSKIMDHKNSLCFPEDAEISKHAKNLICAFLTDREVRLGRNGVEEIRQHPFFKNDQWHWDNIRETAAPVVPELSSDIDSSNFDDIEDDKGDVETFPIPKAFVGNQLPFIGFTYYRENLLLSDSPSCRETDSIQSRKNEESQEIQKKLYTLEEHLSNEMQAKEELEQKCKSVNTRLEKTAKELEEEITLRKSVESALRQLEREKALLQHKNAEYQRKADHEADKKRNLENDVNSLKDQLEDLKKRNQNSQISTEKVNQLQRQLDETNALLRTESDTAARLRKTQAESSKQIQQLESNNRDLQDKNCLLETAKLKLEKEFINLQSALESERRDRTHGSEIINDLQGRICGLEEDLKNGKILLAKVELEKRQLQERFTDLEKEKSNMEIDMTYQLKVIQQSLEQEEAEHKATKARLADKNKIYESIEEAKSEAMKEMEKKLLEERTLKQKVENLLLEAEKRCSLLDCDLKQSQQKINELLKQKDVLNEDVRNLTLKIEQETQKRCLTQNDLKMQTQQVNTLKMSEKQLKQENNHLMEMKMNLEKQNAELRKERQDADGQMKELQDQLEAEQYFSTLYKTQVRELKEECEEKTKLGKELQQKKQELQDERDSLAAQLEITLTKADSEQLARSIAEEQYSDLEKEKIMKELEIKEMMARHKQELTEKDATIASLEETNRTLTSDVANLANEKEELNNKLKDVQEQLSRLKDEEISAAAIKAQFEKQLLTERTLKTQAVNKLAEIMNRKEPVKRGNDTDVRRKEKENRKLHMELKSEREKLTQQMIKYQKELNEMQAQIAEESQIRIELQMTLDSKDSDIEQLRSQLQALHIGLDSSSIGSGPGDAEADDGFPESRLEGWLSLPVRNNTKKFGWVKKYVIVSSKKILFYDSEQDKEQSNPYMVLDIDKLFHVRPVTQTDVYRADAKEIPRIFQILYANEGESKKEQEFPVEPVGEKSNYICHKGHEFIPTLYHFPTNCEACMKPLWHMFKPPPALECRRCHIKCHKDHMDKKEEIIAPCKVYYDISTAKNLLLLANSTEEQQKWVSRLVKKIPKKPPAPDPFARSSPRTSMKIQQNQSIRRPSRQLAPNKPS

For `CNC(=O)Nc1ccc(-c2nc(N3CC4CCC(C3)O4)c3cnn(C4CCC5(CC4)OCCO5)c3n2)cc1`, the % of control in assay [1] came to 94%. The compound `Cc1cc([C@@H](C)Nc2ccccc2C(=O)O)c2nc(N3CCOCC3)cc(=O)n2c1` [AZD-6482] displayed a % of control in assay [2] of 91%.

Turning to `COc1cc(N(C)c2ccnc3ccc(C(F)(F)F)cc23)cc(OC)c1OC`, in assay [3], the % binding worked out at 81%. With `CN(C)CCOc1ccc(-c2nc(-c3ccncc3)c(-c3ccc4c(c3)CC/C4=N\O)[nH]2)cc1`, in assay [4], the % of control was 99%. In assay [5], `Nc1cnc(N2CCc3cc(S(=O)(=O)Nc4c(F)cc(Cl)cc4F)cc(N4CCCC4=O)c32)nc1` [TP-020n] displayed a % of control of 100%. With `CC[C@@H]1[C@H](F)C(=O)N[C@@H]1COc1nccc2cc(C(N)=O)c(OC)cc12` [ZIMLOVISERTIB], the % of inhibition is 18% in assay [6] (at 0.01 µM); 15.6% in assay [6] (at 0.04 µM); 11.9% in assay [6] (at 0.2 µM); 9% in assay [6] (at 1 µM); -24.4% in assay [6] (at 5 µM).

Regarding `C=CC(=O)Nc1cc(-n2c(=O)ccc3cnc4ccc(-c5ccc(NS(C)(=O)=O)cc5)cc4c32)ccc1C`, the % of control in assay [7] (at 1 µM) came to 89%; in assay [7] (at 10 µM) it was 92%.
